From ChEMBL document CHEMBL1144740, “Structural characterization and DPPH radical scavenging activity of an arabinoglucogalactan from Panax notoginseng root” (J Nat Prod, 2008) come the findings set out here.

A short description of this data set: DPPH radical scavenging activity. The class given is ADME.

`OC[C@@H](O)[C@@H]1O[C@H]2O[C@@H]3[C@@H](O)[C@H](O[C@@H]4[C@@H](O)[C@H](O[C@@H]5[C@@H](O)[C@H](O[C@@H]6[C@@H](O)[C@H](O[C@@H]7[C@@H](O)[C@H](O[C@@H]8[C@@H](O)[C@H](O[C@@H]9[C@@H](O)[C@H](O[C@@H]1[C@H]2O)O[C@H]9[C@H](O)CO)O[C@H]8[C@H](O)CO)O[C@H]7[C@H](O)CO)O[C@H]6[C@H](O)CO[C@@H]1O[C@H](CO)[C@@H](O[C@@H]2O[C@H](CO)[C@@H](O)[C@@H]2O)[C@H](O)[C@H]1O)O[C@H]5[C@H](O)CO)O[C@H]4[C@H](O)CO)O[C@H]3[C@H](O)CO` showed an SC50 of 11.72 µg/mL.
As for `O=C1O[C@H]([C@@H](O)CO)C(O)=C1O` [ASCORBIC ACID], the figure is 5.24 µg/mL.
